Assay results published in US8933228B2, “Respiratory formulations and compounds for use therein” (Respivert, Ltd., priority 2010, dated 2015).

Assays:
cSrc enzyme = cSrc enzyme (Homo sapiens (Human), UniProt P12931); experiment: c-SRC enzyme inhibition assay (FRET, Z'-LYTE); format: biochemical; details: read-out: Enzyme Profile: IC50 Values cSrc
HCK enzyme = HCK enzyme (Homo sapiens (Human), UniProt P08631); experiment: HCK enzyme inhibition assay (FRET, Z'-LYTE); format: biochemical; details: read-out: Enzyme Profile: IC50 Values HCK
p38 MAPK γ (MAPK12) = p38 MAPK γ (MAPK12) (Homo sapiens (Human), UniProt P53778); experiment: Enzyme inhibition assay (FRET, Z-LYTE), p38 MAPK gamma; format: biochemical; details: read-out: Enzyme Profile: IC50 Values p38γ
In short: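 Recombinant phosphorylated human p38γ preincubated with compound 2 hr at RT in HEPES buffer, then reacted 1 hr with 2 μM FRET peptide and 100 μM ATP. Protease development 1 hr; phosphorylation derived from coumarin/fluorescein emission ratio.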

[1] = tested on: Differentiated U937 cells; experiment: MTT assay: cell viability; format: cell-based, human; details: 1 μg/ml; for d-U937 MTT Assay 4 h: 5% FCS; for d-U937 MTT Assay 24 h: 10% FCS
In short: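 Differentiated U937 cells pre-incubated with compound either 4 hr in 5% FCS or 24 h in 10% FCS, then 1 hr MTT. Formazan dissolved in DMSO, absorbance at 550 nm. Percentage viability loss relative to 0.5% DMSO vehicle; apparent increases appear as negative percentages.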

[2] = tested on: TNFα release in THP-1 cells; experiment: LPS-induced TNFα release in THP-1 cells; format: cell-based; details: Homo sapiens; THP-1 cells, LPS 3 μg/mL, 4 hr; read-out: THP1 (LPS) TNFα IC50
Description: The inhibition of TNFα production was calculated at each concentration by comparison with vehicle control.

[3] = tested on: TNFα release in d-U937 cells; experiment: LPS-induced TNFα release in d-U937 cells; format: cell-based; details: Homo sapiens, dU937, LPS 0.1 μg/mL, 4 hr, relative to 10 μg/mL BIRB796, read-out: d-U937 (LPS) TNFα REC50
In short: (§1)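 U937 cells made macrophage-like by 48–72 h with PMA (100 ng/mL), then stimulated with LPS (E. coli O111:B4) for 4 h. Supernatant TNFα and IL-8 measured by sandwich ELISA; inhibition versus vehicle control at each concentration, REC50 from concentration-response curve.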

HRV16 = experiment: Rhinovirus-titre assay; format: cell-based, human rhinovirus; details: Human rhinovirus sp., HRV16; cell not marked b; test compounds 0.04 μg/mL per method (footnote b, 0.2 μg/mL); read-out: HRV titre (inhibitory %): % inhibition observed vs. HRV16 infection control
p38 MAPK alpha (MAPK14) = p38 MAPK alpha (MAPK14) (Homo sapiens (Human), UniProt Q16539); experiment: Enzyme inhibition assay (FRET, Z-LYTE), p38 MAPK alpha via MAPKAP-K2 activation; format: biochemical; details: read-out: Enzyme Profile: IC50 Values p38α
In short: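 Recombinant p38 MAPKα was preincubated with compound 2 hr at RT. Its activity was measured indirectly through MAPKAP-K2 activation/phosphorylation, read by Z-LYTE FRET after 1 hr protease development. Phosphorylation was taken from the coumarin/fluorescein emission ratio.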

[4] = tested on: IL-8 release in d-U937 cells; experiment: LPS-induced IL-8 release in d-U937 cells; format: cell-based; details: Homo sapiens, dU937; d-U937 cells, LPS 0.1 μg/mL, 4 hr; read-out: d-U937 (LPS) IL-8 IC50
In short: as §1

[5] = tested on: ICAM-1 expression in BEAS2B cells; experiment: Poly I:C-induced ICAM-1 induction in BEAS2B cells; format: cell-based; details: Homo sapiens, BEAS-2B; BEAS2B cells, poly I:C 1 μg/mL, 18 hr; read-out: BEAS2B (polyIC) ICAM1 IC50
In short: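 Human bronchial epithelial BEAS2B cells pre-incubated 2 hr with test compounds at final concentrations, then transfected with poly I:C (1 μg/mL) using Oligofectamine. Cell-surface ICAM-1 quantified by cell-based ELISA with HRP-conjugated anti-rabbit IgG secondary.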

`COc1ccc(-n2nc(C(C)(C)C)cc2NC(=O)Nc2ccc(Oc3ccnc4[nH]c(=O)cnc34)c3ccccc23)cc1` [Example 25, 1-(3-(tert-butyl)-1-(4-methoxyphenyl)-1H-pyrazol-5-yl)-3-(4-((3-oxo-3,4-dihydropyrido[2,3-b]pyrazin-8-yl)oxy)naphthalen-1-yl)urea] was tested, and the IC50 (cSrc enzyme) was 12 nM, the IC50 (HCK enzyme) was 5 nM and the IC50 (p38 MAPK γ (MAPK12)) was 50 nM. The “d-U937 MTT Assay 4 h” value [1] was “− (− and + indicate the result is below and above the no significant effect threshold, respectively (<30% inhibition at a concentration of 1 μg/ml))”, the “d-U937 MTT Assay 24 h” value [1] was “− (− and + indicate the result is below and above the no significant effect threshold, respectively (<30% inhibition at a concentration of 1 μg/ml))” and the IC50 [2] was 1.6 nM. For the same molecule, the EC50 [3] was 1.8 nM, the inhibition at 0.04 µg/mL (HRV16) was 36% and the IC50 (p38 MAPK alpha (MAPK14)) was 4 nM. For the same molecule, the IC50 [4] was 8.1 nM and the IC50 [5] was 8.3 nM.
`CC(C)(C)c1cc(NC(=O)Nc2ccc(Oc3ccnc4[nH]c(=O)cnc34)c3ccccc23)n(-c2ccc(Cl)cc2)n1` [Example 27, 1-(3-(tert-butyl)-1-(4-chlorophenyl)-1H-pyrazol-5-yl)-3-(4-((3-oxo-3,4-dihydropyrido[2,3-b]pyrazin-8-yl)oxy)naphthalen-1-yl)urea] gave an IC50 (cSrc enzyme) of 16 nM, an IC50 (HCK enzyme) of 918 nM and an IC50 (p38 MAPK γ (MAPK12)) of 237 nM. The “d-U937 MTT Assay 4 h” value [1] was “− (− and + indicate the result is below and above the no significant effect threshold, respectively (<30% inhibition at a concentration of 1 μg/ml))”, the “d-U937 MTT Assay 24 h” value [1] was “− (− and + indicate the result is below and above the no significant effect threshold, respectively (<30% inhibition at a concentration of 1 μg/ml))” and the IC50 [2] was 7.5 nM. For the same molecule, the EC50 [3] was 1.6 nM, the inhibition at 0.04 µg/mL (HRV16) was 94% and the IC50 (p38 MAPK alpha (MAPK14)) was 3 nM. For the same molecule, the IC50 [4] was 1.1 nM and the IC50 [5] was 2.2 nM.
`Cc1ccc(-n2nc(C3CC3)cc2NC(=O)Nc2ccc(Oc3ccnc4[nH]c(=O)cnc34)c3ccccc23)cc1` [Example 28, 1-(3-cyclopropyl-1-(p-tolyl)-1H-pyrazol-5-yl)-3-(4-((3-oxo-3,4-dihydropyrido[2,3-b]pyrazin-8-yl)oxy)naphthalen-1-yl)urea] showed an IC50 (cSrc enzyme) of 22 nM, an IC50 (HCK enzyme) of 9 nM and an IC50 (p38 MAPK γ (MAPK12)) of over 18000 nM. The “d-U937 MTT Assay 4 h” value [1] was “− (− and + indicate the result is below and above the no significant effect threshold, respectively (<30% inhibition at a concentration of 1 μg/ml))”, the “d-U937 MTT Assay 24 h” value [1] was “− (− and + indicate the result is below and above the no significant effect threshold, respectively (<30% inhibition at a concentration of 1 μg/ml))” and the IC50 [2] was 161 nM. For the same molecule, the EC50 [3] was 40 nM, the inhibition at 0.04 µg/mL (HRV16) was 36% and the IC50 (p38 MAPK alpha (MAPK14)) was 2 nM. It also gave an IC50 [4] of 71 nM and an IC50 [5] of over 184 nM.
`Cc1ccc(-n2nc(C3(C)CC3)cc2NC(=O)Nc2ccc(Oc3ccnc4[nH]c(=O)cnc34)c3ccccc23)cc1` [Example 29] gave an IC50 (cSrc enzyme) of 10 nM, an IC50 (HCK enzyme) of 4 nM and an IC50 (p38 MAPK γ (MAPK12)) of 19 nM. The “d-U937 MTT Assay 4 h” value [1] was “− (− and + indicate the result is below and above the no significant effect threshold, respectively (<30% inhibition at a concentration of 1 μg/ml))”, the “d-U937 MTT Assay 24 h” value [1] was “− (− and + indicate the result is below and above the no significant effect threshold, respectively (<30% inhibition at a concentration of 1 μg/ml))” and the IC50 [2] was 17 nM. The EC50 [3] was 5.6 nM, the inhibition at 0.04 µg/mL (HRV16) was 60% and the IC50 (p38 MAPK alpha (MAPK14)) was 5 nM. It also gave an IC50 [4] of 6.7 nM and an IC50 [5] of 13 nM.
In the case of `CC(C)(C)c1cc(NC(=O)Nc2ccc(Oc3ccnc4[nH]c(=O)cnc34)c3ccccc23)n(-c2ccc(S(C)(=O)=O)cc2)n1` [Example 31, 1-(3-(tert-butyl)-1-(4-(methylsulfonyl)phenyl)-1H-pyrazol-5-yl)-3-(4-((3-oxo-3,4-dihydropyrido[2,3-b]pyrazin-8-yl)oxy)naphthalen-1-yl)urea], the IC50 (cSrc enzyme) is reported as 6 nM, the IC50 (HCK enzyme) is reported as 3 nM and the IC50 (p38 MAPK γ (MAPK12)) is reported as 47 nM. The “d-U937 MTT Assay 4 h” value [1] was “− (− and + indicate the result is below and above the no significant effect threshold, respectively (<30% inhibition at a concentration of 1 μg/ml))”, the “d-U937 MTT Assay 24 h” value [1] was “− (− and + indicate the result is below and above the no significant effect threshold, respectively (<30% inhibition at a concentration of 1 μg/ml))” and the IC50 [2] was 62 nM. For the same molecule, the EC50 [3] was 60 nM, the inhibition at 0.04 µg/mL (HRV16) was 8% and the IC50 (p38 MAPK alpha (MAPK14)) was 5 nM. It also gave an IC50 [4] of 68 nM and an IC50 [5] of 178 nM.
`CSc1ccc(-n2nc(C(C)(C)C)cc2NC(=O)Nc2ccc(Oc3ccnc4[nH]c(=O)cnc34)c3ccccc23)cc1` [Example 33, 1-(3-(tert-butyl)-1-(4-(methylthio)phenyl)-1H-pyrazol-5-yl)-3-(4-((3-oxo-3,4-dihydropyrido[2,3-b]pyrazin-8-yl)oxy)naphthalen-1-yl)urea] showed an IC50 (cSrc enzyme) of 7 nM, an IC50 (HCK enzyme) of 4 nM and an IC50 (p38 MAPK γ (MAPK12)) of 74 nM. The “d-U937 MTT Assay 4 h” value [1] was “− (− and + indicate the result is below and above the no significant effect threshold, respectively (<30% inhibition at a concentration of 1 μg/ml))”, the “d-U937 MTT Assay 24 h” value [1] was “− (− and + indicate the result is below and above the no significant effect threshold, respectively (<30% inhibition at a concentration of 1 μg/ml))” and the IC50 [2] was 13 nM. It also gave an EC50 [3] of 8.2 nM, an inhibition at 0.04 µg/mL (HRV16) of 80% and an IC50 (p38 MAPK alpha (MAPK14)) of 5 nM. It also gave an IC50 [4] of 9.4 nM and an IC50 [5] of 3.2 nM.
